Values quoted from earlier work in US20140243422A1, “METHODS OF TREATING BEHAVIORAL AND PSYCHIATRIC DISORDERS” (ELAN PHARMACEUTICALS, INC., priority 2011, published 2014).

System: brain myo-inositol levels
Details: bipolar patients, therapeutic doses, within a few days; cited from earlier work

In the case of `O=C([O-])[O-].[Li+].[Li+]` [Lithium, lithium carbonate], the “reduction of brain myo-inositol levels” value is listed as ~30%.
